# Measured values as given in patent US11993598B2, “Compounds for inhibiting EGFR kinase, preparation methods and uses thereof” (WIGEN BIOMEDICINE TECHNOLOGY (SHANGHAI) CO., LTD., priority 2019, dated 2024).
# Columns and labels:
# [1] = tested on: H1975; experiment: Cell line-derived xenograft (CDX) mouse model; type: in vivo, nude mice
# Protocol: (§1) Assay 3. In vivo studies in cell line-derived (CDX) and patient derived xenografts (PDX) mouse models
# (§2) Cells (H1975) or tissue pieces (LU0493 and LU0426) were implanted subcutaneously into the left armpit of nude mice. When the average tumor volume reached 100-150 mm^3, mice were randomized by tumor volume and treated with vehicle, compound 1 or poziotinib respectively. Tumor volume and body weight were measured twice per week. Mice were sacrificed on day 21 or day 28, and tumor volume and terminal body weight were recorded. The relative tumor volume, percent of treatment/control values and tumor growth inhibition were calculated and statistics was performed.
# (§3) Terminal body weight changes were calculated as percentage of body changes from day 1 to day 21.
# [2] = target: HER2 (Homo sapiens, UniProt P04626); experiment: HER2 biochemical activity assay (HTRF)
# Protocol: (§4) Assay 1: Wild-type EGFR, HER2 and HER4, and mutant EGFR biochemical activity assay
# (§5) 10 nL of Serially diluted compounds were transferred to assay plates using the labcyte Echo 550, and 5 uL of 2× enzymes in assay buffer were subsequently dispensed. The assay plate was covered with an adhesive plate seal, and briefly spinned for 30 s at 1000 g. 5 uL of 2× TK-substrate-biotin and ATP mixed in assay buffer were added.
# (§6) IC50 was calculated and analyzed using a 4 parametric logistic model.
# [3] = tested on: H1975 (EGFR L858R/T790M, NSCLC); experiment: Cell proliferation assay (MTT); type: cell-based; details: Homo sapiens, NCI-H1975, 72 h, three days
# Protocol: (§7) A431 cells, H1975 and Ba/F3 cells expressing various mutant EGFR were harvested from exponential phase cultures and seeded in 96-well plates at a cell density of 3000 per well for A431 and H1975, and 10000 per well for Ba/F3 cells. After overnight attachment, compounds were 3-fold serially diluted and applied to cells at 30 μM, 10 μM, 3 μM, 1 μM, 0.3 μM, […], 0.03 μM and 0.01 μM with triplicates, and incubated for three days. 20 μL of 5 mg/mL MTT was added afterwards followed by the further addition of 50 μL 10% SDS together with 5% isobutyl alcohol in 0.01 mol/L HCl. The plates were incubated overnight. Absorbance (A) at a wavelength of 570 nm was quantified. Percentage of inhibition was used for the calculation of IC50 based on the bliss method.
# [4] = tested on: A431 (wild type EGFR, skin cancer); experiment: Cell proliferation assay (MTT); type: cell-based; details: Homo sapiens, A-431, 72 h, three days
# Protocol: as §7
# [5] = target: Ba/F3_EGFR D770_N771insSVD (Homo sapiens, UniProt P00533, DUP768-770, cells depend on it); experiment: Cell proliferation assay (MTT); type: cell-based; details: three days, read-out: Ba/F3_EGFR D770_N771insSVD IC50
# Ba/F3_EGFR D770_N771insSVD, sequence (P00533 with tags, fused parts or gaps DUP768-770): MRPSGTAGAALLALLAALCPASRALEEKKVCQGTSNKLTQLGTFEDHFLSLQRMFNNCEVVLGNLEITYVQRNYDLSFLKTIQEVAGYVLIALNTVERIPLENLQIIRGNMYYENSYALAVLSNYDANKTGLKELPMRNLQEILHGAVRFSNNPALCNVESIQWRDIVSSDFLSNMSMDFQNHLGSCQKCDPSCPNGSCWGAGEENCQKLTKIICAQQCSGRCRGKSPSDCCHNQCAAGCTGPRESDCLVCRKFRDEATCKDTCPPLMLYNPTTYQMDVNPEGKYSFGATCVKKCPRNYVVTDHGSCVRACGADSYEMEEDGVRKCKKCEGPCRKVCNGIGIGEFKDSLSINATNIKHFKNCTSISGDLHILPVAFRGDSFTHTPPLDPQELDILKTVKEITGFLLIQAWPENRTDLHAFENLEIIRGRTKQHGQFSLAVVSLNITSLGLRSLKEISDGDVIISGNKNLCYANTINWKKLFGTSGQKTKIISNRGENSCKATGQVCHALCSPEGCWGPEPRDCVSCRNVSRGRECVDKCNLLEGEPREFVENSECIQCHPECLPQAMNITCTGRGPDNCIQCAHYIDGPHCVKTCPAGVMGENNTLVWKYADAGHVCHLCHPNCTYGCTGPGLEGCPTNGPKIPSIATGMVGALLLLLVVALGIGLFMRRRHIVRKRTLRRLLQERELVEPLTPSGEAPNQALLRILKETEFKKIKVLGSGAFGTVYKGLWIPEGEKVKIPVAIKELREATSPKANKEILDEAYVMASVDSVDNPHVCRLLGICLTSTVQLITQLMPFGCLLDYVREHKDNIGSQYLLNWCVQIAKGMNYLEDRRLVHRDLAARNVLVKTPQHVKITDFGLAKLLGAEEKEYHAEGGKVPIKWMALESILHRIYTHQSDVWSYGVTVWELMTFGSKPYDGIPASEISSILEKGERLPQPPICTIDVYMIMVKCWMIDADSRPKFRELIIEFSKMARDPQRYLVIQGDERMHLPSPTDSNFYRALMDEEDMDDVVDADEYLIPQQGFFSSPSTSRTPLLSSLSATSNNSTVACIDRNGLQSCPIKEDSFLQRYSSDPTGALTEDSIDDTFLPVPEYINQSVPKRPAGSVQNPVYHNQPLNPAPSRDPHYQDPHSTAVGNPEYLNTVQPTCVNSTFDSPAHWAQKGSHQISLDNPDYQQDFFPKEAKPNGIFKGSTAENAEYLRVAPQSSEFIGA
# Protocol: as §7
# [6] = target: Ba/F3_EGFR V769_D770insASV (Homo sapiens, UniProt P00533, DUP767-769, cells depend on it); experiment: Cell proliferation assay (MTT); type: cell-based; details: three days, read-out: Ba/F3_EGFR V769_D770insASV IC50
# Protocol: as §7
# [7] = target: EGFR T790M (Homo sapiens, UniProt P00533, T790M); experiment: Mutant EGFR biochemical activity assay (HTRF)
# Protocol: as §4, §5, §6
# [8] = target: EGFR Del19 (Homo sapiens, UniProt P00533); experiment: Mutant EGFR biochemical activity assay (HTRF)
# EGFR Del19, sequence (P00533 with tags, fused parts or gaps DEL746-750): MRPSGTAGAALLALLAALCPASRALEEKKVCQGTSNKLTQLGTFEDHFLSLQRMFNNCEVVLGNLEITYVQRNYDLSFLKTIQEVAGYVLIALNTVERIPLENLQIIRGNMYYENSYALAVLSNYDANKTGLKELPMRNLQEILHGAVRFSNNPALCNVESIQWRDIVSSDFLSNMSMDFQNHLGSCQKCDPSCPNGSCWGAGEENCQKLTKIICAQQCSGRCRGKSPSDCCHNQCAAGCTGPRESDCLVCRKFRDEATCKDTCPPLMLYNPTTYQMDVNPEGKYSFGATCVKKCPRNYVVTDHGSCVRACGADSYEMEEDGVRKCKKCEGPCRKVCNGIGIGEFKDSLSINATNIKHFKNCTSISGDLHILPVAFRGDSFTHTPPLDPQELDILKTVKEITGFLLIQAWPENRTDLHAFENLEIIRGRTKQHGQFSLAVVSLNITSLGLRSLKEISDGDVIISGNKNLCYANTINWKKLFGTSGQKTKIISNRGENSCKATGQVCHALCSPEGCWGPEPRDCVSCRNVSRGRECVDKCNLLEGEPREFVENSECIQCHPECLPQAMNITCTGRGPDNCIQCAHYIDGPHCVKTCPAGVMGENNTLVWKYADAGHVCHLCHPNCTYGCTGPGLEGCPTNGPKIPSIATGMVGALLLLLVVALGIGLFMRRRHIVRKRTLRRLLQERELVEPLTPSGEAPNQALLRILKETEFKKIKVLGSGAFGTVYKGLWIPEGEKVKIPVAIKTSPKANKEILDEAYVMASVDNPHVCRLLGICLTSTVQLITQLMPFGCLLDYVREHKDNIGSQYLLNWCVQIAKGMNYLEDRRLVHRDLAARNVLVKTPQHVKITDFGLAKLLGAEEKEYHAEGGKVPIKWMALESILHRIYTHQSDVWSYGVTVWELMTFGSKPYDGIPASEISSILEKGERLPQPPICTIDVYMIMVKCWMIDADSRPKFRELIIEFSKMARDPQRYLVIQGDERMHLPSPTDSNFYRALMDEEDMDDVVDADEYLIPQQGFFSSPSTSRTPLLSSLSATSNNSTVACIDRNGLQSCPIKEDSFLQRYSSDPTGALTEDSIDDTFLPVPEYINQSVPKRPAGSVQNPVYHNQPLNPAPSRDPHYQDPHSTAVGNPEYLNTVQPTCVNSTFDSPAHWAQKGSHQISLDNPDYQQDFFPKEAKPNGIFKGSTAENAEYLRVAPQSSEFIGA
# Protocol: as §4, §5, §6
# [9] = target: EGFR A763_Y764insFHEA (Homo sapiens, UniProt P00533, INS763FHEA); experiment: Mutant EGFR biochemical activity assay (HTRF); details: read-out: IC50 (nM) EGFR A763_Y764 insFHEA
# Protocol: as §4, §5, §6
# [10] = target: EGFR D770_N771insNPG T790M (Homo sapiens, UniProt P00533, INS770NPG/T790M); experiment: Mutant EGFR biochemical activity assay (HTRF); details: read-out: IC50 (nM) EGFR D770_N771 insNPG T790M
# EGFR D770_N771insNPG T790M, sequence (P00533 with tags, fused parts or gaps INS770NPG/T790M limits assumed): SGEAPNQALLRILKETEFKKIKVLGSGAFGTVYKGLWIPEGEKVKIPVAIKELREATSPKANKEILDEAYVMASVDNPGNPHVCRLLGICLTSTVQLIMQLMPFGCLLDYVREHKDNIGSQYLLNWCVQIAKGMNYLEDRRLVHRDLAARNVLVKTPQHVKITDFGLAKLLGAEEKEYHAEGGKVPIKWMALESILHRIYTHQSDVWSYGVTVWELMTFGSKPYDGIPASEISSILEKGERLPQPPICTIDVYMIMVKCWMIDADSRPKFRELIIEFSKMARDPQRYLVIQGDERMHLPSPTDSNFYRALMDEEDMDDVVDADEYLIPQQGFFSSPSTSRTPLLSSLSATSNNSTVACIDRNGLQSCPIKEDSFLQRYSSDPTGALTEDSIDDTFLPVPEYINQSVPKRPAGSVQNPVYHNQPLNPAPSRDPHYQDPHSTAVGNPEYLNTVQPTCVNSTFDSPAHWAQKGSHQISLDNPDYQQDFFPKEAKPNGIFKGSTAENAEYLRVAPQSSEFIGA
# Protocol: as §4, §5, §6
# [11] = target: EGFR L792F (Homo sapiens, UniProt P00533, L792F); experiment: Mutant EGFR biochemical activity assay (HTRF)
# Protocol: as §4, §5, §6
# [12] = target: EGFR D770-N771insNPG (Homo sapiens, UniProt P00533, INS770NPG); experiment: Mutant EGFR biochemical activity assay (HTRF)
# Protocol: as §4, §5, §6
# [13] = target: EGFR T790M/L858R (Homo sapiens, UniProt P00533, L858R/T790M); experiment: Mutant EGFR biochemical activity assay (HTRF)
# Protocol: as §4, §5, §6
# [14] = target: EGFR L792H (Homo sapiens, UniProt P00533, L792H); experiment: Mutant EGFR biochemical activity assay (HTRF)
# Protocol: as §4, §5, §6
# [15] = target: EGFR D770GY (Homo sapiens, UniProt P00533, D770Y/INS769G); experiment: Mutant EGFR biochemical activity assay (HTRF)
# EGFR D770GY, sequence (P00533 with tags, fused parts or gaps INS769G/D770Y limits assumed): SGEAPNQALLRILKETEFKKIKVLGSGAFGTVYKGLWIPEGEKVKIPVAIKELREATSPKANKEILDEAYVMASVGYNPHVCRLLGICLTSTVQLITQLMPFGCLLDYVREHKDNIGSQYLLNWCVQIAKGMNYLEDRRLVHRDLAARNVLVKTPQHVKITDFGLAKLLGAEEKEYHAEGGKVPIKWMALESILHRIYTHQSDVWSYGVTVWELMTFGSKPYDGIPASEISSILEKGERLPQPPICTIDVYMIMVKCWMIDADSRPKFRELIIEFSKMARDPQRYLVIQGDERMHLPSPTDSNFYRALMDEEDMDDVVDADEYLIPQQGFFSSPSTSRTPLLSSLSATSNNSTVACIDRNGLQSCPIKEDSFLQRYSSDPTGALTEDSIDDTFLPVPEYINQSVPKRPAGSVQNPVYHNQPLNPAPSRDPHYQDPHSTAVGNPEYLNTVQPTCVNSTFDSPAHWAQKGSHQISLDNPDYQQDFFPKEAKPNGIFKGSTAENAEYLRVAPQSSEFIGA
# Protocol: as §4, §5, §6
# [16] = target: EGFR-WT (Homo sapiens, UniProt P00533); experiment: Wild-type EGFR biochemical activity assay (HTRF)
# EGFR-WT, sequence (P00533 25-1210): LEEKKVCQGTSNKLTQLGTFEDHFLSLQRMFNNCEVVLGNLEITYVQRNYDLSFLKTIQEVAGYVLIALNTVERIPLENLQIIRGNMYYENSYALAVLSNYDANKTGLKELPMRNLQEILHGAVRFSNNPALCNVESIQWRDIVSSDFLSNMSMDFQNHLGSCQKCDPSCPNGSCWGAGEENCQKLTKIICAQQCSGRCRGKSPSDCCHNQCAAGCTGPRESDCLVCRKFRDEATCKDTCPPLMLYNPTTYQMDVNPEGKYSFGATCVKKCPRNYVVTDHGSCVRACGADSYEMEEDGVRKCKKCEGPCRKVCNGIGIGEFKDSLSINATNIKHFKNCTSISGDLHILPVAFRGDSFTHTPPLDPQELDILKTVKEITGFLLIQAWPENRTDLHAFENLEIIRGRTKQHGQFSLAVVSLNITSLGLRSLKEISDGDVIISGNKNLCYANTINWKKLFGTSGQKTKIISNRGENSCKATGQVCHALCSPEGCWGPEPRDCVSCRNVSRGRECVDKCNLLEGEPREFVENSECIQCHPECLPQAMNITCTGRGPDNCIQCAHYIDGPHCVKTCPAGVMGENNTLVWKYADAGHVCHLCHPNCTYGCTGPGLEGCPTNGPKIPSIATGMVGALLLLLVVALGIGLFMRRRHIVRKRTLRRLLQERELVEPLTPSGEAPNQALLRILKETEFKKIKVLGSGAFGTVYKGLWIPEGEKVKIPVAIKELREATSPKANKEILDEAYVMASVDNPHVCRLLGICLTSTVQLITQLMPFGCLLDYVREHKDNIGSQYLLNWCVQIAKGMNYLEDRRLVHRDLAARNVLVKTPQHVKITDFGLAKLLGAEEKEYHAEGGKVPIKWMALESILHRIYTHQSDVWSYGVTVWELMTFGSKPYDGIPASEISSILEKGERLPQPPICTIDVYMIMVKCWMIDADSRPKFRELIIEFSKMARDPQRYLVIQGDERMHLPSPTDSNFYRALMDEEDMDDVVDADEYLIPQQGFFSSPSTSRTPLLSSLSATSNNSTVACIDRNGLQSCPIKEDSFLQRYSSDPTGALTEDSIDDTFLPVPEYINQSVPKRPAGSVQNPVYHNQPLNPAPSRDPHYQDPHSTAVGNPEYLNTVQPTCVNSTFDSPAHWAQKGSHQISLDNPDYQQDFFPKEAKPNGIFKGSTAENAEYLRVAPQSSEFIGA
# Protocol: as §4, §5, §6
# [17] = tested on: LU-0387; experiment: Xenograft mouse model LU-0387; type: in vivo, nude mice
# [18] = tested on: tumor growth with EGFR exon 20 insertions and T790M mutations; experiment: In vivo CDX and PDX mouse models, overall statement; design: species or system nude mice
# Protocol: as §1, §2, §3
# [19] = tested on: LU-01-0493; experiment: Patient derived xenograft (PDX) mouse model; type: in vivo, nude mice
# Protocol: as §1, §2, §3
# [20] = tested on: LU-01-0426; experiment: Patient derived xenograft (PDX) mouse model; type: in vivo, nude mice
# Protocol: as §1, §2, §3
# [21] = target: HER4 (Homo sapiens, UniProt Q15303); experiment: HER4 biochemical activity assay (HTRF)
# Protocol: as §4, §5, §6
smiles,measurement,setting,value
"C=CC(=O)Nc1cc(Nc2nccc(-n3c(=O)n4c5c(cc(F)cc53)CCC4)n2)c(OC)cc1N(C)CCN(C)C [Compound 1, N-(2-((2-(dimethylamino)ethyl)(methyl)amino)-5-((4-(8-fluoro-2-oxo-5,6-dihydro-4H-imidazo[4,5,1-ij]quinolin-1(2H)-yl)pyrimidin-2-yl)amino)-4-methoxyphenyl)acrylamide]",TGI (%),"[1]; H1975, 15 mg/kg compound 1",98%
same,Terminal body weight changes (%),"[1]; H1975, 15 mg/kg compound 1, day 1 to day 21",3.9%
same,TGI (%),"[1]; H1975, 30 mg/kg compound 1",106%
same,Terminal body weight changes (%),"[1]; H1975, 30 mg/kg compound 1, day 1 to day 21",5.1%
same,TGI (%),"[1]; H1975, 60 mg/kg compound 1",108%
same,Terminal body weight changes (%),"[1]; H1975, 60 mg/kg compound 1, day 1 to day 21",−4.1%
same,IC50,[2],35.1 nM
same,IC50,[3],52.9 nM
same,IC50,[4],157 nM
same,GI50,[5],7.06 nM
same,GI50,[6],20.2 nM
same,IC50,[7],0.0526 nM
same,IC50,[8],0.175 nM
same,IC50,[9],0.264 nM
same,IC50,[10],0.049 nM
same,IC50,[11],1.26 nM
same,IC50,[12],0.063 nM
same,IC50,[13],0.0639 nM
same,IC50,[14],27.6 nM
same,IC50,[15],0.0649 nM
same,IC50,[16],1.56 nM
same,TGI (%),"[17]; LU-0387, 30 mg/kg compound 1",42%
same,Terminal body weight changes (%),"[17]; LU-0387, 30 mg/kg compound 1, day 1 to day 21",−7.75%
same,TGI (%),"[17]; LU-0387, 60 mg/kg compound 1",95%
same,Terminal body weight changes (%),"[17]; LU-0387, 60 mg/kg compound 1, day 1 to day 21",1.26%
same,"impact on body weight compared to poziotinib, in words",[18],less impacts on body weight
same,TGI (%),"[19]; LU-01-0493, 15 mg/kg compound 1",55.4%
same,Terminal body weight changes (%),"[19]; LU-01-0493, 15 mg/kg compound 1, day 1 to day 21",3.2%
same,TGI (%),"[19]; LU-01-0493, 30 mg/kg compound 1",72.3%
same,Terminal body weight changes (%),"[19]; LU-01-0493, 30 mg/kg compound 1, day 1 to day 21",−6.1%
same,TGI (%),"[19]; LU-01-0493, 60 mg/kg compound 1",88.9%
same,Terminal body weight changes (%),"[19]; LU-01-0493, 60 mg/kg compound 1, day 1 to day 21",−6.5%
same,TGI (%),"[20]; LU-01-0426, 15 mg/kg compound 1",47%
same,Terminal body weight changes (%),"[20]; LU-01-0426, 15 mg/kg compound 1, day 1 to day 21",5.7%
same,TGI (%),"[20]; LU-01-0426, 30 mg/kg compound 1",84%
same,Terminal body weight changes (%),"[20]; LU-01-0426, 30 mg/kg compound 1, day 1 to day 21",1.8%
same,TGI (%),"[20]; LU-01-0426, 60 mg/kg compound 1",106.3%
same,Terminal body weight changes (%),"[20]; LU-01-0426, 60 mg/kg compound 1, day 1 to day 21",−2%
same,IC50,[21],0.769 nM
